Data from patent publication US20060003988A1, “Compounds capable of inhibiting immunocyte-related allergic immune reactions” (priority 2002, published 2006).
Structures can show the parent of a compound that is named as a salt.

Key:
[1] = system: IL-2 production from peripheral blood T cells; experiment: IL-2 production from peripheral blood T cells (ELISA); format: cell-based, human; conditions: each costimulation condition; 24 hours; up to maximum concentration (10 μM ebastine, 100 μM carebastine)
Description: (§1) In order to analyze whether or not H1 blockers have an inhibitory effect on cytokine production induced by the various costimulations described above, the present inventors measured Th1 type cytokines (IL-2, and IFN-γ) in the culture supernatant induced by the various costimulations described above.
(§2) The antibody-coated plates and T cells were prepared similarly as in Example 1 except that the OKT3 concentration was 0.5 μg/ml. The cytokine production by T cells was analyzed in triplicate using 96-well flat-bottomed plates by the same method employed in the T cell proliferation analysis described above. After culturing for 24 hours, the culture supernatant was tested using ELISA kit (IL-2: Biosource International, Camarillo, Calif.; IFN-γ: R&D systems, Minneapolis, Minn.) to quantify IL-2 and IFN-γ.

[2] = system: IFN-γ production from peripheral blood T cells; experiment: IFN-γ production from peripheral blood T cells (ELISA); format: cell-based, human; conditions: each costimulation condition; 24 hours; ebastine 0.1 μM to 10 μM, carebastine 1 μM to 100 μM
Description: as §1, §2

[3] = system: IL-4 production from peripheral blood T cells; experiment: IL-4 production from peripheral blood T cells (ELISA); format: cell-based, human
Description: as §2
(§3) Th2 type CD4 T cells play an important role in allergic diseases. […] This analysis was performed similarly as in Example 2 except that ELISA (IL-4: Biosource International, Camarillo, Calif.; IL-5: R&D systems, Minneapolis, Minn.) was used to quantify IL-4 and IL-5.

[4] = system: IL-5 production from peripheral blood T cells; experiment: IL-5 production from peripheral blood T cells (ELISA); format: cell-based, human; conditions: for effect on IL-5 production: each costimulation condition, concentration-dependent
Description: as §2, §3

[5] = system: IL-6 production from peripheral blood T cells; experiment: IL-6 production from peripheral blood T cells (ELISA); format: cell-based, human; conditions: for effect on IL-6 production from T cells: each costimulation condition
Description: as §2
(§4) The present inventors analyzed the effects of H1 blockers on the production of inflammatory cytokines, such as IL-6 and TNF-α, from T cells due to the various costimulation pathways described above. This analysis was performed similarly as in Example 2 above except for the use of an ELISA kit for measuring IL-6 and TNF-α (R&D systems, Minneapolis, Minn.).

[6] = system: TNF-α production from peripheral blood T cells; experiment: TNF-α production from peripheral blood T cells (ELISA); format: cell-based, human; conditions: for effect on TNF-α production from T cells: each costimulation condition
Description: as §2, §4

PHA-stimulated T cells [7] = experiment: Transendothelial migration of PHA-stimulated T cells through ECV304 monolayer; format: cell-based, human; conditions: compound present during migration, eight hours
Description: Since fresh resting-stage T cells hardly migrate by permeating a monolayer of endothelial cells, these T cells were activated using PHA (10 μg/ml) prior to performing transendothelial migration analysis.
Specifically, the analysis of transendothelial migration was performed by slightly modifying a known method (Iwata S, Yamaguchi N, Munakata Y, Ikushima H, Lee J F, Hosono O, Schlossman S F, Morimoto C. “CD26/DPPIV differentially regulates the chemotaxis of T cells and monocytes toward RANTES. Possible mechanism for the switch from innate to acquired immune response.” Int Immunol. 11:417-426, 1999). Human endothelial cell strain ECV304 was obtained from the American Tissue Culture Collection (ATCC; Rockville, Md.) and cultured for 48 hours on Transwell cell culture inserts (Corning Costar, Cambridge, Mass.) with a pore size of 3.0 μm. The cells were loaded onto a 24-well plastic plate for cell culture (FALCON), and mixed with H1 blockers at various concentrations using Transwell assay medium (RPMI1640 medium, BSA 0.6%, Penicillin G/Streptomycin 1%, HEPES 50 mM). Two-hundred μl of PHA-stimulated T cells (1×10^7/ml) were then placed in the upper chamber and 600 μl of assay medium was placed in the lower chamber, and migration was performed for eight hours at 37° C. under 5% CO2. After recovery of the cells, the number of cells was counted for one minute by flow cytometry (FACSCalibur, Nippon Becton-Dickinson, Tokyo, Japan).

[8] = system: IL-6 production from macrophages; experiment: IL-6 production from macrophages upon LPS stimulation (ELISA); format: cell-based, human
Excerpt: (§5) Specifically, in order to produce IL-6 and THF-α from macrophages, peripheral blood mononuclear cells were adhered to a plastic plate to isolate and recover macrophages.

[9] = system: TNF-α production from macrophages; experiment: TNF-α production from macrophages upon LPS stimulation (ELISA); format: cell-based, human
Excerpt: as §5

[10] = in vivo; cited from earlier work
[11] = system: histamine-induced contraction in trachea samples; conditions: trachea samples excised from guinea pigs; read-out: IC50 of the effects on histamine-induced contraction; cited from earlier work
[12] = dose increased to five times from that used for the treatment; cited from earlier work
PHA-stimulated T cells [13] = experiment: Adhesion of PHA-stimulated T cells to endothelial cells (fluorescence microscopy); conditions: 1.0 μM to 5.0 μM; six hours; dose-dependent
Description: After six hours, the culture dish was washed three times with PBS.

H2 receptors [14] = biological target: T1, H2 receptors (Homo sapiens, UniProt P25021); conditions: read-out: IC50 in the inhibition of ligand binding to H2 receptors; cited from earlier work
[15] = biological target: human recombinant H1 receptors (Homo sapiens, UniProt P35367); conditions: read-out: IC50 of inhibiting ligand binding to H1 receptors; cited from earlier work
[16] = according to the Interview Form; cited from earlier work
T cells = experiment: T cell proliferation (3H-thymidine incorporation) via different costimulation pathways; format: cell-based, human; conditions: stimulation on CD3 combined with CD26, CD28 or PMA; all concentrations used
Description: The first pathway was PMA, the second pathway stimulation on CD28 that is one of the representative T cell costimulation molecules, and the third pathway stimulation on CD26 that is expressed on CD4^+ memory T cells. The simulation on CD3 was applied together with all of these stimulations. The stimulation on CD3, CD26, and CD28 was performed using monoclonal antibodies OKT3, 1F7 (Morimoto C et al., 1989, supra), and 4B10 (immi CD et al., 1991, supra), respectively. OKT3 was purchased from the American Tissue Culture Collection (ATCC, Rockville, Md.), while 4B10 and 1F7 were purified from mouse ascites of hybridomas established in the present inventors' laboratory (Gimmi C D et al., 1991, supra; Morimoto C et al., 1989, supra). […]
Phosphate-buffer saline (PBS) (100 μl) containing either one of the monoclonal antibodies, OKT3 (0.05 μg/ml), 1F7 (1 μg/ml), or 4B10 (2 μg/ml), was coated in triplicate according to a known method (Dang N H et al., 1990, supra) on flat-bottomed 96-well plates (Coster, Cambridge, Mass.), and the plates were then incubated overnight at 4° C. […] The cells were stimulated for eight hours with 1 μCi ^3H-thymidine (ICN Radiochemicals, Irvine, Calif.) per well, recovered on a glass fiber filter (Wallac, Turku, Finland) to quantify the incorporated radioactivity with a liquid scintillation counter (Wallac).

H2 receptors [17] = biological target: T1, H2 receptors; conditions: at maximum concentration; cited from earlier work
[18] = each costimulation condition, concentration-dependent

T1 sequence (P25021 whole entry): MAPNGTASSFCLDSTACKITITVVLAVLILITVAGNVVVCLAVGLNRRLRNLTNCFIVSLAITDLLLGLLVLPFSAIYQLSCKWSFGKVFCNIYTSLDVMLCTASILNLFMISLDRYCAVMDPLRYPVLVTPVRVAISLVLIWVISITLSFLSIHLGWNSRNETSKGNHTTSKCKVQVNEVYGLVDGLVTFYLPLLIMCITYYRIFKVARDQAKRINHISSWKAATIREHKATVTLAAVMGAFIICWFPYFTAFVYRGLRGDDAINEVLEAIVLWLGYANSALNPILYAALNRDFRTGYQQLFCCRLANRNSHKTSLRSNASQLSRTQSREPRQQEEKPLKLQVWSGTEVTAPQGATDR
Chain of human recombinant H1 receptors (P35367 whole entry): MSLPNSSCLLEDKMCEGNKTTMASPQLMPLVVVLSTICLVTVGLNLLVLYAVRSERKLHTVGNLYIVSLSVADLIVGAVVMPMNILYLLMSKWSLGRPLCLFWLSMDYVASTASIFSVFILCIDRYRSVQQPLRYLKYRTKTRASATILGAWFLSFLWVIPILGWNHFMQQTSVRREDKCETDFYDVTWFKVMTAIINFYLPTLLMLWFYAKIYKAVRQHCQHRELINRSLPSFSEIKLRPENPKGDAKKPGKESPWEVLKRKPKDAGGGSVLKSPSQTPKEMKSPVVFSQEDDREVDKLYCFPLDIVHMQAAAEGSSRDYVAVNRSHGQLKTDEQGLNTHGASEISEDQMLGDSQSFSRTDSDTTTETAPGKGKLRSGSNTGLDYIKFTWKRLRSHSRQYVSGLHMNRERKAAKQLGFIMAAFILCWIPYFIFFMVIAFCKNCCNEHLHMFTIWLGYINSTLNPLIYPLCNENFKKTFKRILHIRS

SMILES: CC(C)(C(=O)O)c1ccc(C(=O)CCCN2CCC(OC(c3ccccc3)c3ccccc3)CC2)cc1 [carebastine, 4-[4-[4-(di-phenylmethoxy)-1-piperidinyl]-1-oxobutyl]-α, α-di-methylbenzeneacetic acid]
- effect on IL-2 production [1]: did not inhibit
- effect on IFN-γ production [2]: did not have a clear effect
- effect on IL-4 production [3, 18]: inhibited
- effect on IL-5 production [4]: inhibited
- effect on IL-6 production from T cells [5]: inhibited
- effect on TNF-α production from T cells [6]: inhibited
- effect on T cell migration (PHA-stimulated T cells [7]): suppressed
- effect on IL-6 production from macrophages ([8]; eight hours): suppressed
- effect on TNF-α production from macrophages ([9]; eight hours): suppressed
- maximum blood concentration [10]: 0.1 µM
- IC50 [11]: 120 nM

SMILES: O=C(O)COCCN1CCN(C(c2ccccc2)c2ccc(Cl)cc2)CC1 (centres unmarked) [cetirizine hydrochloride]
- effect on IL-2 production [1]: did not have a clear effect
- effect on IFN-γ production [2]: did not have a clear effect
- effect on IL-4 production [3, 18]: did not have a clear effect
- effect on IL-5 production [4]: did not have a clear effect
- effect on IL-6 production from T cells [5]: did not have a clear effect
- effect on TNF-α production from T cells [6]: did not have a clear effect
- effect on IL-6 production from macrophages ([8]; eight hours): no inhibition
- effect on TNF-α production from macrophages ([9]; eight hours): no inhibition

SMILES: CC(C)(C)c1ccc(C(=O)CCCN2CCC(OC(c3ccccc3)c3ccccc3)CC2)cc1 [ebastine, 4-diphenylmethoxy-1[3-(4-terbutyl-benzoyl)-propyl]piperidine]
- effect on IL-2 production [1]: did not inhibit
- effect on IFN-γ production [2]: did not have a clear effect
- effect on IL-4 production ([3]; 10 μM): nearly completely inhibited
- suppression of IL-4 production ([3]; 20 μM, all donors): 100%
- effect on IL-4 production [3, 18]: inhibited
- suppression of IL-5 production ([4]; 20 μM, all donors): 100%
- effect on IL-5 production [4]: inhibited
- suppression of IL-6 production from T cells ([5]; 10 μM to 20 μM): 100%
- effect on IL-6 production from T cells [5]: inhibited
- suppression of TNF-α production from T cells ([6]; 10 μM to 20 μM): 100%
- effect on TNF-α production from T cells [6]: inhibited
- suppression of IL-6 production from macrophages ([8]; 1 μM): ≥ 50%
- effect on IL-6 production from macrophages ([8]; 10 μM): nearly completely inhibited
- effect on IL-6 production from macrophages ([8]; eight hours): suppressed
- suppression of TNF-α production from macrophages ([9]; 1 μM): ≥ 50%
- effect on TNF-α production from macrophages ([9]; 10 μM): nearly completely inhibited
- effect on TNF-α production from macrophages ([9]; eight hours): suppressed
- effect on QT interval [12]: not to affect
- adhesion of PHA-stimulated T cells to endothelial cells (PHA-stimulated T cells [13]): suppress

SMILES: NC1=NCC2c3ccccc3Cc3ccccc3N12 (centres unmarked) [epinastine hydrochloride, 3-amino-9,13b-dihydro-1H-dibenz(c,f)imidazol(1,5-a)azepine hydro-chloride]
- effect on IL-2 production [1]: suppressed
- effect on IFN-γ production [2]: suppressed
- effect on IL-4 production [3, 18]: inhibited
- effect on IL-5 production [4]: inhibited
- effect on IL-6 production from T cells [5]: no clear effect
- effect on TNF-α production from T cells [6]: no clear effect
- effect on T cell migration (PHA-stimulated T cells [7]): did not have a clear effect
- effect on IL-6 production from macrophages ([8]; eight hours): no inhibition
- effect on TNF-α production from macrophages ([9]; eight hours): no inhibition
- maximum blood concentration [10]: 0.1 µM
- IC50 (H2 receptors [14]): 640 ± 62 nM
- IC50 [15]: 1.1 ± 0.16 nM
- efficacy in the improvement of bronchial asthma to a medium degree or greater [16]: 47.0%

SMILES: CN1CCC(=C2c3ccccc3CC(=O)c3sccc32)CC1 [ketotifen fumarate]
- effect on T cell proliferation (T cells): hardly inhibited
- effect on IL-2 production [1]: did not have a clear effect
- effect on IFN-γ production [2]: did not have a clear effect
- effect on IL-4 production [3, 18]: did not have a clear effect
- effect on IL-5 production [4]: did not have a clear effect
- effect on IL-6 production from T cells [5]: did not have a clear effect
- effect on TNF-α production from T cells [6]: did not have a clear effect
- effect on T cell migration (PHA-stimulated T cells [7]): did not have a clear effect
- effect on IL-6 production from macrophages ([8]; eight hours): no inhibition
- effect on TNF-α production from macrophages ([9]; eight hours): no inhibition
- maximum blood concentration [10]: 0.01 µM
- IC50 [11]: 2.5 nM
- IC50 (H2 receptors [14]): 2200 ± 450 nM

SMILES: CC(C)(C)c1ccc(C(O)CCCN2CCC(C(O)(c3ccccc3)c3ccccc3)CC2)cc1 (centres unmarked) [terfenadine]
- inhibition rate to [3H]-tiotidine (H2 receptors [17]): 29%
